Test results as given in US20140249135A1, “PIM KINASE INHIBITORS AND METHODS OF THEIR USE” (NOVARTIS AG, priority 2007, published 2014).
Like-named read-outs stand apart in the source and are kept apart here.

Key:
Pim1 kinase = Pim1 kinase (Homo sapiens, UniProt P11309); assay: Pim1 ATP depletion assay; format: biochemical;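 further: Luciferase-luciferin luminescence readout of residual ATP after PIM1 transfers phosphate to a peptide substrate, 40 µM ATP added, reaction run to roughly half ATP consumption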
Chain of Pim1 kinase (P11309 whole entry): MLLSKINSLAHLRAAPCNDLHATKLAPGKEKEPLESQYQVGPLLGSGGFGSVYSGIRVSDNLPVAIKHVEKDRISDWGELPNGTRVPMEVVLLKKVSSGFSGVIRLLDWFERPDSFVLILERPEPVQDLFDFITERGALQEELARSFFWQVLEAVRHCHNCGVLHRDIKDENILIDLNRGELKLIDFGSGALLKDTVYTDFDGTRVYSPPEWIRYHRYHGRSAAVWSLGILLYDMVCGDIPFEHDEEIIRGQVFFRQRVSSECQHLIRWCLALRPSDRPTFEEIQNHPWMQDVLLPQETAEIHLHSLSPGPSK

Pim2 kinase = Pim2 kinase (Homo sapiens, UniProt Q9P1W9); assay: Pim2 ATP depletion assay; format: biochemical;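 further: Luciferase-based luminescent readout of ATP remaining after PIM2 phosphorylates a BAD peptide, final 5 nM enzyme, 4 µM ATP, 10 µM peptide, 2.5% DMSO, run to roughly half ATP consumption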
Chain of Pim2 kinase (Q9P1W9 whole entry): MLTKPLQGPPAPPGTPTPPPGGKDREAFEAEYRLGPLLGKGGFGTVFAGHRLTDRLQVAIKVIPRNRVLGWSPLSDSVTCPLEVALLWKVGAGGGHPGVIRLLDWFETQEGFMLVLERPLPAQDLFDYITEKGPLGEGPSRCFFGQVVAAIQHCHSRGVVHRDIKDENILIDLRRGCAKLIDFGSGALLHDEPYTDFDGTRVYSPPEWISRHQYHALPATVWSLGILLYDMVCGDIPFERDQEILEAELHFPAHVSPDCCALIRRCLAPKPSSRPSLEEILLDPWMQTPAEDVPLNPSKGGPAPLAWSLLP

Pim3 kinase = Pim3 kinase (Homo sapiens, UniProt Q86V86); assay: Pim3 ATP depletion assay; format: biochemical
KDR kinase = KDR kinase (Homo sapiens, UniProt P35968); assay: KDR AlphaScreen assay; conditions: KDR IC50 (μM)
Chain of KDR kinase (P35968 20-1356): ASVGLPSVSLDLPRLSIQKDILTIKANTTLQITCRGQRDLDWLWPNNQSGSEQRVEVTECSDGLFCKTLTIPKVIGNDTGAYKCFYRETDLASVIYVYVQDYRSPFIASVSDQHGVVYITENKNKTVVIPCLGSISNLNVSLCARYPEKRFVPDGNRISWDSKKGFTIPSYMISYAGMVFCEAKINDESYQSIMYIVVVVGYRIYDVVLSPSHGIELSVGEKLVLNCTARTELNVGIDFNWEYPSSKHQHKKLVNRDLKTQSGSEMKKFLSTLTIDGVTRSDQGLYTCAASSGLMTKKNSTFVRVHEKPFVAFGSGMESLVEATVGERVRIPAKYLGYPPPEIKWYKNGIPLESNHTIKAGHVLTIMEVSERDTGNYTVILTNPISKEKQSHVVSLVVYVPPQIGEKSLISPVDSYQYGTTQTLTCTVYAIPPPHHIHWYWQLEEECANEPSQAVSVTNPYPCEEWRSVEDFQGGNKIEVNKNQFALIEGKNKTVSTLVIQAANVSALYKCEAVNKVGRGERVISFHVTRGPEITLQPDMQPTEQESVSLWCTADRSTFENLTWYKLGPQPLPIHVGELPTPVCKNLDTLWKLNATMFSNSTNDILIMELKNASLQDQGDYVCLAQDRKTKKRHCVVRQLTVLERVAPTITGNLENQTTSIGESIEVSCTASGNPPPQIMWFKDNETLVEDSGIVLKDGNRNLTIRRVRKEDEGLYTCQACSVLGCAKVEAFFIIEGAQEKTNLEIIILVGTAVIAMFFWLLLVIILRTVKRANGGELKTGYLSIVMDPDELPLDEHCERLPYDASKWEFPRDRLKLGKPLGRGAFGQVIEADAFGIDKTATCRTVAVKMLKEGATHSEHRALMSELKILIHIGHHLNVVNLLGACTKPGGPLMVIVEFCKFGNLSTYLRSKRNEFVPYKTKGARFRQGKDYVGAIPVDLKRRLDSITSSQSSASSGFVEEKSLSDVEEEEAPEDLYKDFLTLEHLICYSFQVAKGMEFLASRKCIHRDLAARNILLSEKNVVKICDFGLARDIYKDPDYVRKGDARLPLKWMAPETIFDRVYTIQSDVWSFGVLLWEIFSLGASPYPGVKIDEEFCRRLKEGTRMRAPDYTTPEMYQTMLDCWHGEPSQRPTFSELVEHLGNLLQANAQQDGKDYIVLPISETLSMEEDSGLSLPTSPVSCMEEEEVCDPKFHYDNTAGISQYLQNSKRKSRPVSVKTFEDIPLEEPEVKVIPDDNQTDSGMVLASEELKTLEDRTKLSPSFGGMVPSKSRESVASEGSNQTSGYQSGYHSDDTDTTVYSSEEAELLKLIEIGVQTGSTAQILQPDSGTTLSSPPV

[1] = molecular target: T1, human full length PKCE enzyme (Homo sapiens, UniProt Q02156); assay: In vitro PKCE assay; format: biochemical; conditions: 10 nM enzyme, 40 uM peptide substrate, 20 uM ATP, KinaseGlo Plus readout; read-out: PKCε IC50
T1 construct: human full length PKCE enzyme purchased from InVitrogen; purchased InVitrogen
T1 sequence (Q02156 1-737): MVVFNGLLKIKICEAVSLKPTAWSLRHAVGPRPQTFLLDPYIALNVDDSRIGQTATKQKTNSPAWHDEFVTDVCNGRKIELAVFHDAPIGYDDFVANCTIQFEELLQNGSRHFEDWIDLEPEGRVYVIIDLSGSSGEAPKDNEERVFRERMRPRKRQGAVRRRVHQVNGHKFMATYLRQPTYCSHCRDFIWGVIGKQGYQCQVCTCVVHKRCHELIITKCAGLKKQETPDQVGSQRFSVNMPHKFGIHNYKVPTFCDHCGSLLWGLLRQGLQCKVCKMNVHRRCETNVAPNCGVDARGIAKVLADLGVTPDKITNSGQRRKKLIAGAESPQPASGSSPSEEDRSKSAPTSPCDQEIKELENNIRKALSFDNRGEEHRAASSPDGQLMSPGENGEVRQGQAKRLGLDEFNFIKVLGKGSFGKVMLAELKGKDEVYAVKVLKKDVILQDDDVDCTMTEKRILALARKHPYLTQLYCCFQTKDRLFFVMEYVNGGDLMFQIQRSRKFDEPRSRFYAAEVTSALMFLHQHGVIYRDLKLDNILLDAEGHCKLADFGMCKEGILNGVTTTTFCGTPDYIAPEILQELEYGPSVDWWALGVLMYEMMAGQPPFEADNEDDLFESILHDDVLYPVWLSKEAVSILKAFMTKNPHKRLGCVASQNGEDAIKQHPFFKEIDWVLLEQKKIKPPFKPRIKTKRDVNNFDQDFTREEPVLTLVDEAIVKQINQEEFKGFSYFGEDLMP

[2] = Pim1 ATP depletion assay, read-out: PIM1 IC50
[3] = Pim1 ATP depletion assay, read-out: IC50 (μM) PIM1

Row | IC50 (Pim1 kinase; [2]) | IC50 (Pim2 kinase; read-out: PIM2 IC50) | IC50 (Pim3 kinase; read-out: PIM3 IC50) | IC50 (KDR kinase) | IC50 (Pim1 kinase; [3]) | IC50 (Pim2 kinase; read-out: IC50 (μM) PIM2) | IC50 (Pim3 kinase; read-out: IC50 (μM) PIM3) | IC50 [1] | IC50 (Pim1 kinase) | Compound
1 | < 1 µM | < 1 µM | < 1 µM | 10 to 25 µM | – | – | – | – | – | Nc1cc(-c2ccncc2NC(=O)c2nc(-c3c(F)cccc3F)ccc2N)ncn1 [Example 629, 3-amino-N-[4-(6-aminopyrimidin-4-yl)pyridin-3-yl]-6-(2,6-difluoro-phenyl)pyridine-2-carboxamide]
2 | < 1 µM | < 1 µM | < 1 µM | 10 to 25 µM | – | – | – | – | – | Nc1cnc(-c2ccccc2F)nc1C(=O)Nc1cnccc1N1CCC[C@H](O)C1 [Example 649, 5-Amino-2-(2-fluoro-phenyl)-pyrimidine-4-carboxylic acid (3-hydroxy-3,4,5,6-tetrahydro-2H-[1,4′]bipyridinyl-3′-yl)-amide]
3 | < 1 µM | < 1 µM | < 1 µM | 10 to 25 µM | – | – | – | – | – | CCCOc1ccc(F)c(-c2ncc(N)c(C(=O)Nc3cnccc3N3CCC[C@H](N)C3)n2)c1F [Example 545, 5-Amino-2-(2,6-difluoro-3-propoxy-phenyl)-pyrimidine-4-carboxylic acid (3-amino-3,4,5,6-tetrahydro-2H-[1,4′]bipyridinyl-3′-yl)-amide]
4 | – | – | – | 10 to 25 µM | < 1 µM | < 1 µM | < 1 µM | – | – | N[C@H]1CCCN(c2ccncc2NC(=O)c2cccc(-c3ccccc3F)n2)C1 [Example 455, 6-(2-Fluoro-phenyl)-pyridine-2-carboxylic acid (3-amino-3,4,5,6-tetrahydro-2H-[1,4′]bipyridinyl-3′-yl)-amide]
5 | – | – | – | 1 to 10 µM | < 1 µM | < 1 µM | < 1 µM | – | – | Cc1nc(N)cc(-c2ccncc2NC(=O)c2nc(-c3ccccc3)ncc2N)n1 [Example 268, 5-Amino-2-phenyl-pyrimidine-4-carboxylic acid [4-(6-amino-2-methyl-pyrimidin-4-yl)-pyridin-3-yl]-amide]
6 | – | – | – | 10 to 25 µM | < 1 µM | < 1 µM | < 1 µM | – | – | Nc1cc(F)c(-c2c(F)ccc(OCc3ccccc3)c2F)nc1C(=O)Nc1cnccc1N1CCC[C@H](N)C1 [Example 505, 3-Amino-6-(3-benzyloxy-2,6-difluoro-phenyl)-5-fluoro-pyridine-2-carboxylic acid (3-amino-3,4,5,6-tetrahydro-2H-[1,4′]bipyridinyl-3′-yl)-amide]
7 | < 1 µM | < 1 µM | < 1 µM | 10 to 25 µM | – | – | – | – | – | COc1ccc(F)c(-c2ncc(N)c(C(=O)Nc3cnccc3N3CCC[C@H](N)C3)n2)c1 [Example 549, 5-Amino-2-(2-fluoro-5-methoxy-phenyl)-pyrimidine-4-carboxylic acid (3-amino-3,4,5,6-tetrahydro-2H-[1,4′]bipyridinyl-3′-yl)-amide]
8 | – | – | – | – | < 1 µM | < 1 µM | < 1 µM | > 25000 nM | – | Nc1cccnc1C(=O)Nc1[nH]c(=O)ncc1N1CCCC(N)C1 (centres unmarked) [Example 242, 3-amino-N-[5-(3-aminopiperidin-1-yl)-2-oxo-2,3-dihydro-pyrimidin-4-yl]pyridine-2-carboxamide]
9 | < 1 µM | < 1 µM | < 1 µM | – | – | – | – | > 25000 nM | – | Nc1ncc(-c2ccccc2OC(F)(F)F)nc1C(=O)Nc1[nH]c(=O)ncc1N1CCCCC1 [Example 596, 3-amino-6-(2-trifluoromethoxy-phenyl)-pyrazine-2-carboxylic acid (2-oxo-5-piperidin-1-yl-2,3-dihydro-pyrimidin-4-yl)-amide]
10 | < 1 µM | < 1 µM | < 1 µM | – | – | – | – | > 25000 nM | – | Nc1ncc(-c2ccccc2Cl)nc1C(=O)Nc1[nH]c(=O)ncc1N1CCCCC1 [Example 595, 3-amino-6-(2-chloro-phenyl)-pyrazine-2-carboxylic acid (2-oxo-5-piperidin-1-yl-2,3-dihydro-pyrimidin-4-yl)-amide]
11 | < 1 µM | < 1 µM | < 1 µM | – | – | – | – | > 25000 nM | – | COc1ccccc1-c1cnc(N)c(C(=O)Nc2[nH]c(=O)ncc2N2CCCCC2)n1 [Example 594, 3-amino-6-(2-methoxy-phenyl)-pyrazine-2-carboxylic acid (2-oxo-5-piperidin-1-yl-2,3-dihydro-pyrimidin-4-yl)-amide]
12 | – | – | – | – | > 25 µM | > 25 µM | > 25 µM | > 25000 nM | – | NC[C@H]1CCCN1c1ccncc1NC(=O)c1nccnc1N [Example 192, 3-amino-N-{4-[(2R)-2-(amino-methyl)pyrrolidin-1-yl]pyridin-3-yl}pyrazine-2-carboxamide]
13 | – | – | – | – | < 1 µM | < 1 µM | < 1 µM | 1000 to 10000 nM | – | Nc1nccnc1C(=O)Nc1[nH]c(=O)ncc1-c1ccco1 [Example 136, 3-amino-N-[5-(2-furyl)-2-oxo-2,3-dihydropyrimidin-4-yl]-pyrazine-2-carboxamide]
14 | – | – | – | – | – | > 25 µM | 1 to 10 µM | < 1000 nM | < 1 µM | Nc1nccnc1C(=O)Nc1cnccc1N1CCNCC1 [Example 191, 3-amino-N-(4-piperazin-1-yl-pyridin-3-yl)pyrazine-2-carboxamide]
15 | – | – | – | – | < 1 µM | < 1 µM | < 1 µM | 1000 to 10000 nM | – | Cc1cnc(N)c(C(=O)Nc2cnccc2N2CCCC(N)C2)n1 (centres unmarked) [Example 371, 3-amino-6-methyl-pyrazine-2-carboxylic acid (3-amino-3,4,5,6-tetrahydro-2H-[1,4′]bi-pyridinyl-3′-yl)-amide]
16 | – | – | – | – | < 1 µM | < 1 µM | < 1 µM | < 1000 nM | – | NCC1CCCN(c2cnc(=O)[nH]c2NC(=O)c2nc(Br)cnc2N)C1 (centres unmarked) [Example 240, 3-amino-N-{5-[3-(aminomethyl)-piperidin-1-yl]-2-oxo-2,3-dihydropyrimidin-4-yl}-6-bromopyrazine-2-carboxamide]
17 | – | – | – | – | < 1 µM | < 1 µM | < 1 µM | < 1000 nM | – | NCCC(=O)N1CCN(c2ccncc2NC(=O)c2nc(Br)cnc2N)CC1 [Example 178, 3-amino-N-{4-[4-(3-amino-propanoyl)piperazin-1-yl]-pyridin-3-yl}-6-bromopyrazine-2-carboxamide]
18 | – | – | – | – | < 1 µM | < 1 µM | < 1 µM | 1000 to 10000 nM | – | Nc1ncc(-c2ccccc2C(F)(F)F)nc1C(=O)Nc1[nH]c(=O)ncc1N1CCCC(N)C1 (centres unmarked) [Example 404, 3-amino-6-(2-trifluoromethyl-phenyl)-pyrazine-2-carboxylic acid [5-(3-amino-piperidin-1-yl)-2-oxo-2,3-dihydro-pyrimidin-4-yl]-amide]
19 | – | – | – | – | < 1 µM | < 1 µM | < 1 µM | 1000 to 10000 nM | – | NCCC(=O)N1CCN(c2cnc(=O)[nH]c2NC(=O)c2nc(Br)cnc2N)CC1 [Example 241, 3-amino-N-{5-[4-(3-amino-propanoyl)piperazin-1-yl]-2-oxo-2,3-dihydropyrimidin-4-yl}-6-bromopyrazine-2-carboxamide]
20 | – | – | – | – | < 1 µM | < 1 µM | < 1 µM | 1000 to 10000 nM | – | Nc1nccnc1C(=O)Nc1[nH]c(=O)ncc1N1CCC(F)(F)CC1 [Example 156, 3-amino-N-[5-(4,4-difluoro-piperidin-1-yl)-2-oxo-2,3-dihydropyrimidin-4-yl]pyrazine-2-carboxamide]
